Where two headings read alike, the source gives them in different places.
Tests used:
[1] = Blood and tumor activity after P53-BiDE(noHIS) and 177Lu-Bn-DOTA administration (FIG. 6A, 6D, 6E); type: in vivo, mice; conditions: 177Lu-Bn-DOTA only
Protocol: FIG. 6A to FIG. 6E depict pharmacokinetics of exemplary SADA-BiDE constructs in vivo. FIG. 6A depicts activity over time after P53-BiDE(noHIS) and Bn-DOTA administration. Each line represents one group, with three mice per group. Triangles denote a group that received P53-BiDE(noHIS) followed by clearing agent (CA) 72 hours later. Squares denote a group that received P53-BiDE(noHIS) without any clearing agent before ^177Lu-Bn-DOTA administration. Circles denote a group that only received ^177Lu-Bn-DOTA but not any SADA-BiDE. Dashed lines correspond to the measured blood activity, while solid lines correspond to the activity measured in the tumor. […] FIG. 6B depicts blood activity of radiolabeled 131I-SADA-BiDE in tumor-free mice. Activity measurements were normalized to the initial measurement for each group. Each line represents one group, with 4-5 mice per group. (+) symbols denote P53-BiDE, (X) symbols denote P63-BiDE and circles denote P73-BiDE. […]
Importantly, even though, as described in the previous examples, P53-BIDE(NOHIS), P53-BiDE, P63-BiDE and P73-BiDE is rapidly cleared from the serum, total tumor uptake of was not affected. With both 24 hours and 72 hours between P53-BIDE(NOHIS) and ^177Lu-Bn-DOTA injections, significant activity (˜15% ID/g) was measured at the tumor site (FIG. 6D) […]

[2] = Clearance of unbound injected Bn-DOTA in a tumor free mouse; type: in vivo; conditions: within four hours
Protocol: In a tumor free mouse, over 99% of unbound injected Bn-DOTA typically clears from the murine serum within four hours, with the vast majority of it being excreted in the urine within the first 30 minutes. In contrast, previous studies have shown that between 3 to 5% of directly labeled IgG will remain in the blood 48 hours after injection. (Azzopardi, N. et al. (2011) Clin Cancer Res 17, 6329-6337).

[3] = 37° C., cited from earlier work

Compound: O=C(O)CN1CCN(CC(=O)O)CCN(CC(=O)O)C(Cc2ccccc2)CN(CC(=O)O)CC1 (stereo not shown) [Bn-DOTA, Benzyl-1,4,7,10-tetraazacyclododecane-1,4,7,10-tetraacetic acid, reference compound]
- tumor activity, Bn-DOTA alone without SADA-BiDE [1]: no tumor activity was detected
- unbound injected Bn-DOTA cleared from murine serum [2]: over 99%

Compound: Tetramerization domain of p53 (residues 321-359): Human p53 tetramerization domain (321-359), SADA domain; SEQ ID NO: 1
- Kd ([3]; read-out: dissociation constant (KD), tetramers dissociating into dimers): 0.15 µM
- Kd ([3]; read-out: dissociation constant of dimers into monomers): 0.001 µM

From US11583588B2, “Modular self assembly disassembly (SADA) technologies” (MEMORIAL SLOAN KETTERING CANCER CENTER, priority 2017, dated 2023)
